Measurements: PubChem BioAssay (NCI)
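Method: 48-hour compound exposure of cells in 96-well plates, five concentrations, linear interpolation of endpoints. GI50 marks 50% less growth. Definition used: TGI = concentration required for complete inhibition of growth.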

Tests used:
Assay in all cases: NCI tumour cell line growth inhibition, 48 h
786-0 renal = system: 786-0 renal
A498 renal = system: A498 renal
A549 NSCLC = system: A549 NSCLC
ACHN renal = system: ACHN renal
BT-549 breast = system: BT-549 breast
CAKI-1 renal = system: CAKI-1 renal
CCRF-CEM leukemia = system: CCRF-CEM leukemia
COLO 205 colon = system: COLO 205 colon
EKVX NSCLC = system: EKVX NSCLC
HCC-2998 colon = system: HCC-2998 colon
HCT-116 colon = system: HCT-116 colon
HCT-15 colon = system: HCT-15 colon
HL-60(TB) leukemia = system: HL-60(TB) leukemia
HOP-62 NSCLC = system: HOP-62 NSCLC
HOP-92 NSCLC = system: HOP-92 NSCLC
HS 578T breast = system: HS 578T breast
HT29 colon = system: HT29 colon
IGROV1 ovarian = system: IGROV1 ovarian
K-562 leukemia = system: K-562 leukemia
KM12 colon = system: KM12 colon
LOX IMVI melanoma = system: LOX IMVI melanoma
M14 melanoma = system: M14 melanoma
MALME-3M melanoma = system: MALME-3M melanoma
MCF7 breast = system: MCF7 breast
MDA-MB-231 breast = system: MDA-MB-231 breast
MOLT-4 leukemia = system: MOLT-4 leukemia
NCI-H226 lung = system: NCI-H226 lung
NCI-H23 lung = system: NCI-H23 lung
NCI-H460 lung = system: NCI-H460 lung
NCI-H522 lung = system: NCI-H522 lung
NCI/ADR-RES ovarian = system: NCI/ADR-RES ovarian
OVCAR-3 ovarian = system: OVCAR-3 ovarian
OVCAR-4 ovarian = system: OVCAR-4 ovarian
OVCAR-5 ovarian = system: OVCAR-5 ovarian
OVCAR-8 ovarian = system: OVCAR-8 ovarian
PC-3 prostate = system: PC-3 prostate
RPMI-8226 leukemia = system: RPMI-8226 leukemia
RXF 393 renal = system: RXF 393 renal
SF-268 CNS = system: SF-268 CNS
SF-295 CNS = system: SF-295 CNS
SF-539 CNS = system: SF-539 CNS
SK-MEL-28 melanoma = system: SK-MEL-28 melanoma
SK-MEL-5 melanoma = system: SK-MEL-5 melanoma
SK-OV-3 ovarian = system: SK-OV-3 ovarian
SN12C renal = system: SN12C renal
SNB-19 CNS = system: SNB-19 CNS
SNB-75 CNS = system: SNB-75 CNS
SR leukemia = system: SR leukemia
SW-620 colon = system: SW-620 colon
T-47D breast = system: T-47D breast
TK-10 renal = system: TK-10 renal
U251 CNS = system: U251 CNS
UACC-257 melanoma = system: UACC-257 melanoma
UACC-62 melanoma = system: UACC-62 melanoma
UO-31 renal = system: UO-31 renal

**Q.** Which results are given for `COc1ccc2ncn(-c3cc(O[C@H](C)c4ccccc4Cl)c(C(N)=O)s3)c2c1`?
**A.** GI50 (786-0 renal): 281 nM; TGI (786-0 renal): 8270 nM; GI50 (A498 renal): 44.1 nM; TGI (A498 renal): 570 nM; GI50 (A549 NSCLC): 28.7 nM; TGI (A549 NSCLC): > 25000 nM; GI50 (ACHN renal): 1130 nM; TGI (ACHN renal): > 25000 nM; GI50 (BT-549 breast): 448 nM; TGI (BT-549 breast): 13300 nM; GI50 (CAKI-1 renal): 189 nM; TGI (CAKI-1 renal): > 25000 nM; GI50 (CCRF-CEM leukemia): 8.61 nM; TGI (CCRF-CEM leukemia): 6350 nM; GI50 (COLO 205 colon): 9.53 nM; TGI (COLO 205 colon): 436 nM; GI50 (EKVX NSCLC): 183 nM; TGI (EKVX NSCLC): > 25000 nM; GI50 (HCC-2998 colon): 34.8 nM; TGI (HCC-2998 colon): 5510 nM; GI50 (HCT-116 colon): 21 nM; TGI (HCT-116 colon): 3640 nM; GI50 (HCT-15 colon): 20.3 nM; TGI (HCT-15 colon): > 25000 nM; GI50 (HL-60(TB) leukemia): 8.49 nM; TGI (HL-60(TB) leukemia): 2810 nM; GI50 (HOP-62 NSCLC): 19.2 nM; TGI (HOP-62 NSCLC): > 25000 nM; GI50 (HOP-92 NSCLC): 404 nM; TGI (HOP-92 NSCLC): 8010 nM; GI50 (HS 578T breast): 76.3 nM; TGI (HS 578T breast): 1260 nM; GI50 (HT29 colon): 8.13 nM; TGI (HT29 colon): 9130 nM; GI50 (IGROV1 ovarian): 28.4 nM; TGI (IGROV1 ovarian): > 25000 nM; GI50 (K-562 leukemia): 14.5 nM; TGI (K-562 leukemia): > 25000 nM; GI50 (KM12 colon): 9.07 nM; TGI (KM12 colon): 5230 nM; GI50 (LOX IMVI melanoma): 28 nM; TGI (LOX IMVI melanoma): 4830 nM; GI50 (M14 melanoma): 16.4 nM; TGI (M14 melanoma): > 25000 nM; GI50 (MALME-3M melanoma): 8210 nM; TGI (MALME-3M melanoma): > 25000 nM; GI50 (MCF7 breast): 8.95 nM; TGI (MCF7 breast): 4170 nM; GI50 (MDA-MB-231 breast): 45.4 nM; TGI (MDA-MB-231 breast): > 17300 nM; GI50 (MOLT-4 leukemia): 12.2 nM; TGI (MOLT-4 leukemia): > 10500 nM; GI50 (NCI-H226 lung): 600 nM; TGI (NCI-H226 lung): 12700 nM; GI50 (NCI-H23 lung): 19.7 nM; TGI (NCI-H23 lung): > 18300 nM; GI50 (NCI-H460 lung): 13.3 nM; TGI (NCI-H460 lung): 3510 nM; GI50 (NCI-H522 lung): 16.5 nM; TGI (NCI-H522 lung): 221 nM; GI50 (NCI/ADR-RES ovarian): 10.7 nM; TGI (NCI/ADR-RES ovarian): 2880 nM; GI50 (OVCAR-3 ovarian): 8.63 nM; TGI (OVCAR-3 ovarian): 1070 nM; GI50 (OVCAR-4 ovarian): 869 nM; TGI (OVCAR-4 ovarian): > 25000 nM; GI50 (OVCAR-5 ovarian): 26.3 nM; TGI (OVCAR-5 ovarian): > 25000 nM; GI50 (OVCAR-8 ovarian): 27.4 nM; TGI (OVCAR-8 ovarian): 20800 nM; GI50 (PC-3 prostate): 73.3 nM; TGI (PC-3 prostate): > 25000 nM; GI50 (RPMI-8226 leukemia): 16 nM; TGI (RPMI-8226 leukemia): 8710 nM; GI50 (RXF 393 renal): 10.5 nM; TGI (RXF 393 renal): 3780 nM; GI50 (SF-268 CNS): 31.6 nM; TGI (SF-268 CNS): > 25000 nM; GI50 (SF-295 CNS): 18.9 nM; TGI (SF-295 CNS): 7050 nM; GI50 (SF-539 CNS): 37.4 nM; TGI (SF-539 CNS): 5540 nM; GI50 (SK-MEL-28 melanoma): 105 nM; TGI (SK-MEL-28 melanoma): > 25000 nM; GI50 (SK-MEL-5 melanoma): 9.51 nM; TGI (SK-MEL-5 melanoma): 540 nM; GI50 (SK-OV-3 ovarian): 24.6 nM; TGI (SK-OV-3 ovarian): > 25000 nM; GI50 (SN12C renal): 954 nM; TGI (SN12C renal): > 25000 nM; GI50 (SNB-19 CNS): 81.4 nM; TGI (SNB-19 CNS): > 25000 nM; GI50 (SNB-75 CNS): 148 nM; TGI (SNB-75 CNS): > 19700 nM; GI50 (SR leukemia): 12 nM; TGI (SR leukemia): 1530 nM; GI50 (SW-620 colon): 9.26 nM; TGI (SW-620 colon): 3690 nM; GI50 (T-47D breast): 1070 nM; TGI (T-47D breast): 8300 nM; GI50 (TK-10 renal): 1190 nM; TGI (TK-10 renal): 11100 nM; GI50 (U251 CNS): 23.4 nM; TGI (U251 CNS): > 25000 nM; GI50 (UACC-257 melanoma): 444 nM; TGI (UACC-257 melanoma): > 22700 nM; GI50 (UACC-62 melanoma): 21.3 nM; TGI (UACC-62 melanoma): 3990 nM; GI50 (UO-31 renal): 1410 nM; TGI (UO-31 renal): 17000 nM
